The record followed here is ChEMBL document CHEMBL2150981, “Discovery and optimization of benzotriazine di-N-oxides targeting replicating and nonreplicating Mycobacterium tuberculosis” (J Med Chem, 2012).

For data set [1], the system named is Mycobacterium tuberculosis. The data set can be described thus: Antitubercular activity against Mycobacterium tuberculosis H37Rv incubated for 10 days in anaerobic condition followed by 48 hrs incubation in aerobic condition by LORA assay. It counts as functional.
For a further data set, the system named is Vero. The data set can be described thus: Cytotoxicity against african green monkey Vero cells after 72 hrs by CellTiterGlo assay. The settings on record: chlorocebus sabaeus, vero, 72 h. (Cellular ATP, detected with luciferase, serves as a proxy for viable cell number.)
The nature of data set [2]: Selectivity index, ratio of CC50 for Vero cells to MIC90 for Mycobacterium tuberculosis H37Rv isolate SRI. It counts as functional.
For data set [3], the system named is Mycobacterium tuberculosis. The data set can be described thus: Antitubercular activity against Mycobacterium tuberculosis H37Rv isolate SRI after 5 days by resazurin-based microplate assay. It counts as functional. The settings on record: 120 h.
Data set [4] concerns Mycobacterium tuberculosis. Briefly: Antitubercular activity against Mycobacterium tuberculosis H37Rv isolate ITR after 7 days by luminescence spectrometry. The settings on record: 168 h. It counts as functional.

Converted amounts (≈) assume the structure as drawn. Bounds are passed on as bounds.

As a reminder, the MIC90 is the lowest concentration that inhibits either 90% of growth or 90% of the strains tested, depending on the study. What is called CC50 is the concentration at which the toxic effect on the cells reaches its halfway point. As for `[O-][n+]1nc(NC2CC2)[n+]([O-])c2ccccc21`, the values for the MIC90 in data set [1] and in data set [3] were 1.8 µg/mL (≈ 8.25 µM) and 2.5 µg/mL (≈ 11.5 µM), respectively. Further, in the data set with Vero, the CC50 worked out at 21 µg/mL (≈ 96.2 µM). Also, the “Selectivity Index” value in data set [2] is given as 8.3.
On to `[O-][n+]1nc(NC2CCCC2)[n+]([O-])c2ccccc21`, for which the MIC90 in data set [1] was 0.68 µg/mL (≈ 2.76 µM); in data set [4], 3.6 µg/mL (≈ 14.6 µM); in data set [3], 2.5 µg/mL (≈ 10.2 µM). The CC50 in the data set on Vero is 10 µg/mL (≈ 40.6 µM). Further, the “Selectivity Index” value in data set [2] is given as 4.2.
For the molecule `CC(=O)Nc1cc(/C=C\c2ccc([N+](=O)[O-])o2)ns1`, the values for the MIC90 in data set [1], in data set [4] and in data set [3] were 3.7 µg/mL (≈ 13.2 µM), 3.8 µg/mL (≈ 13.6 µM) and 0.98 µg/mL (≈ 3.51 µM), respectively. The CC50 in the data set on Vero was > 50 µg/mL. Moreover, in data set [2], the “Selectivity Index” value is listed as >50.
On to `COCCNC(=O)c1ccc2c(c1)[n+]([O-])c(O)c(C#N)[n+]2[O-]`, for which the MIC90 in data set [1] was > 32 µg/mL; in data set [3], > 20 µg/mL. The CC50 in the data set with Vero is > 16 µg/mL.
As for `Cc1c(N2CCCC2)[n+]([O-])c2ccccc2[n+]1[O-]`, the MIC90 in data set [1] was > 32 µg/mL; in data set [3], > 10 µg/mL. In addition, in the data set on Vero, the CC50 is > 16 µg/mL.
Turning to `[O-][n+]1nc(NC2CCC2)[n+]([O-])c2ccccc21`, the values for the MIC90 in data set [1], in data set [4] and in data set [3] were 0.84 µg/mL (≈ 3.62 µM), 0.94 µg/mL (≈ 4.05 µM) and 1.2 µg/mL (≈ 5.17 µM), respectively. For the same molecule, in the data set on Vero, the CC50 came to 8.9 µg/mL (≈ 38.3 µM). In addition, the “Selectivity Index” value in data set [2] is 7.1.
In the same order, the values of `CC(C)(C)C1CCC(Nc2n[n+]([O-])c3ccccc3[n+]2[O-])CC1` (centres undefined) are < 0.12 µg/mL, 0.22 µg/mL (≈ 0.695 µM), 0.62 µg/mL (≈ 1.96 µM), 2.3 µg/mL (≈ 7.27 µM) and 3.7.
In the same order, the values of `CC(C)CCC(C)Nc1n[n+]([O-])c2ccccc2[n+]1[O-]` (centres undefined) are 0.38 µg/mL (≈ 1.38 µM), 0.52 µg/mL (≈ 1.88 µM), 1.2 µg/mL (≈ 4.34 µM), 4.1 µg/mL (≈ 14.8 µM) and 3.3.
In the same order, the values of `[O-][n+]1nc(N[C@@H]2C[C@H]3CC[C@@H]2C3)[n+]([O-])c2ccccc21` are 0.42 µg/mL (≈ 1.54 µM), 0.6 µg/mL (≈ 2.2 µM), 0.62 µg/mL (≈ 2.28 µM), 3.4 µg/mL (≈ 12.5 µM) and 5.5.
In the case of `CCNc1n[n+]([O-])c2cc(F)ccc2[n+]1[O-]`, the results for the MIC90 in data set [1], in data set [4] and in data set [3] were 0.75 µg/mL (≈ 3.35 µM), 0.35 µg/mL (≈ 1.56 µM) and 0.62 µg/mL (≈ 2.77 µM), respectively. Moreover, the CC50 with Vero was determined as 4.6 µg/mL (≈ 20.5 µM). Moreover, in data set [2], the “Selectivity Index” value amounted to 7.3.
As to `[O-][n+]1nc(NC2CC2)[n+]([O-])c2ccc(F)cc21`, the results for the MIC90 in data set [1], in data set [4] and in data set [3] were 3.5 µg/mL (≈ 14.8 µM), 0.93 µg/mL (≈ 3.94 µM) and 0.31 µg/mL (≈ 1.31 µM), respectively. Besides, the CC50 in the data set on Vero was 1.3 µg/mL (≈ 5.5 µM). Moreover, the “Selectivity Index” value in data set [2] is on record as 2.2.
`[O-][n+]1nc(NC2CCC2)[n+]([O-])c2ccc(F)cc21`: the MIC90 in data set [1] was found to be 0.88 µg/mL (≈ 3.52 µM); in data set [4], 0.4 µg/mL (≈ 1.6 µM); in data set [3] it was 0.31 µg/mL (≈ 1.24 µM). This molecule also had a CC50 in the data set on Vero of 1.6 µg/mL (≈ 6.39 µM). Besides, in data set [2], the “Selectivity Index” value was found to be 10.
In the same order, the values of `[O-][n+]1nc(NC2CCCC2)[n+]([O-])c2ccc(F)cc21` are 0.34 µg/mL (≈ 1.29 µM), 0.33 µg/mL (≈ 1.25 µM), 0.31 µg/mL (≈ 1.17 µM), 2.3 µg/mL (≈ 8.7 µM) and 7.3.
In the same order, the values of `[O-][n+]1nc(NC2CCCCC2)[n+]([O-])c2ccc(F)cc21` are 0.47 µg/mL (≈ 1.69 µM), 0.68 µg/mL (≈ 2.44 µM), 0.62 µg/mL (≈ 2.23 µM), < 2.5 µg/mL and <4.
In the same order, the values of `[O-][n+]1nc(N[C@@H]2C[C@H]3CC[C@@H]2C3)[n+]([O-])c2ccc(F)cc21` are 0.21 µg/mL (≈ 0.723 µM), < 0.12 µg/mL, 0.31 µg/mL (≈ 1.07 µM), < 2.5 µg/mL and <4.
Turning to `CCNc1n[n+]([O-])c2cc(Cl)ccc2[n+]1[O-]`, the results for the MIC90 in data set [1], in data set [4] and in data set [3] were 0.41 µg/mL (≈ 1.7 µM), < 0.12 µg/mL and 1.2 µg/mL (≈ 4.99 µM), respectively. In the data set on Vero, this molecule showed a half-maximal cytotoxic concentration (CC50) of 2.6 µg/mL (≈ 10.8 µM). Besides, the “Selectivity Index” value in data set [2] stood at 2.1.
As for `[O-][n+]1nc(NC2CC2)[n+]([O-])c2ccc(Cl)cc21`, the MIC90 came to 0.22 µg/mL (≈ 0.871 µM) in data set [1], 0.21 µg/mL (≈ 0.831 µM) in data set [4] and 0.62 µg/mL (≈ 2.45 µM) in data set [3]. Also, the CC50 in the data set with Vero amounted to 1.3 µg/mL (≈ 5.15 µM). Besides, in data set [2], the “Selectivity Index” value worked out at 2.2.
With `[O-][n+]1nc(NC2CCC2)[n+]([O-])c2ccc(Cl)cc21`, the MIC90 is < 0.12 µg/mL in data set [1] and 0.15 µg/mL (≈ 0.562 µM) in data set [3]. Also, the CC50 in the data set on Vero worked out at 1.6 µg/mL (≈ 6 µM). Also, in data set [2], the “Selectivity Index” value is 10.
